In ChEMBL document CHEMBL4725391, “Discovery and Optimization of Novel SUCNR1 Inhibitors: Design of Zwitterionic Derivatives with a Salt Bridge for the Improvement of Oral Exposure” (J Med Chem, 2020):
The source made the active and inactive calls. The rule behind the calls is not given here.

Assays:
[1] = Dose normalized AUC in C57BL/6 mouse at 3 mg/kg, po measured after 0.25 to 24 hrs by LC-MS/MS analysis; format: ADME, organism-based; conditions: in vivo, time 0.25-24 hrs
[2] = Permeability of compound by PAMPA assay; format: ADME
[3] = Oral bioavailability in C57BL/6 mouse measured after 0.25 to 24 hrs by LC-MS/MS analysis; format: ADME, organism-based; conditions: in vivo, time 0.25-24 hrs
[4] = Clearance in C57BL/6 mouse at 1 mg/kg, iv administered as bolus dose measured after 0.083 to 24 hrs by LC-MS/MS analysis; format: ADME, organism-based; conditions: in vivo, time 0.083-24 hrs
Coagulation factor XI = Coagulation factor XI (Homo sapiens, UniProt P03951); experiment: Inhibition of human factor 11a by TR-FRET assay
Complement factor D = Complement factor D (Homo sapiens, UniProt P00746); experiment: Inhibition of recombinant human CFD expressed in Escherichia coli incubated up to 2 hrs by TR-FRET assay
[5] = Octanol-water distribution coefficient, log D of the compound by shake flask method; format: physicochemical
[6] = Protein binding in human plasma at 5 uM incubated for 4 hrs by LC-MS/MS analysis; format: ADME, cell-free; conditions: read-out: PPB (converted)
Succinate receptor 1 = molecular target: T1, Succinate receptor 1 (Homo sapiens, UniProt Q9BXA5); experiment: Antagonist activity at human SUCNR1 expressed in human CHEM1 cells incubated for 60 mins in presence of [35S]GTPgammaS by scintillation proximity assay; format: functional, cell-based, Chem-1
T1 sequence (Q9BXA5 whole entry): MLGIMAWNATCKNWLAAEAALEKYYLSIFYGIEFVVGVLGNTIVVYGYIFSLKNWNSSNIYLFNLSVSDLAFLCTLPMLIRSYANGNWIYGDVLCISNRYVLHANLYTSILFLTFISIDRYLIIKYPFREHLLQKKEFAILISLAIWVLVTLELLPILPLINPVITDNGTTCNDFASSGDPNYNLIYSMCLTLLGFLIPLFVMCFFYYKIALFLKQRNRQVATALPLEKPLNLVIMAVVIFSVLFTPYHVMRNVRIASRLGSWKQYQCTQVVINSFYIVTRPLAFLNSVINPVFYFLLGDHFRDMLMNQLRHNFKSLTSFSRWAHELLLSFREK

[7] = molecular target: T2, Succinate receptor 1 (Rattus norvegicus) (UniProt Q6IYF9); experiment: Antagonist activity at rat SUCNR1 expressed in CHO-K1 cell membranes at 100 uM incubated for 60 mins in presence of [35S]GTPgammaS by scintillation proximity assay relative to control; format: functional; conditions: filed as antagonist
T2 sequence (whole entry): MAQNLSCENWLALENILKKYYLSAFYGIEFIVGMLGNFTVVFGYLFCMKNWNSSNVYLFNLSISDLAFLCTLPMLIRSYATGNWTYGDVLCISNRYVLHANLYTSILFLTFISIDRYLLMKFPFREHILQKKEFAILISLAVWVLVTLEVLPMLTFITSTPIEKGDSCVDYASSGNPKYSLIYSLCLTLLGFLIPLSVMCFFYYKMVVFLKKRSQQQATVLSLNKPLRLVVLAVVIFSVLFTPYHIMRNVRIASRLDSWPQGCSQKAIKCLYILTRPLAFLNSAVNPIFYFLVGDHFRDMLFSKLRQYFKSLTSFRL

[8] = molecular target: T3, Succinate receptor 1 (Mus musculus) (UniProt Q99MT6); experiment: Antagonist activity at mouse SUCNR1 100 uM
T3 sequence (whole entry): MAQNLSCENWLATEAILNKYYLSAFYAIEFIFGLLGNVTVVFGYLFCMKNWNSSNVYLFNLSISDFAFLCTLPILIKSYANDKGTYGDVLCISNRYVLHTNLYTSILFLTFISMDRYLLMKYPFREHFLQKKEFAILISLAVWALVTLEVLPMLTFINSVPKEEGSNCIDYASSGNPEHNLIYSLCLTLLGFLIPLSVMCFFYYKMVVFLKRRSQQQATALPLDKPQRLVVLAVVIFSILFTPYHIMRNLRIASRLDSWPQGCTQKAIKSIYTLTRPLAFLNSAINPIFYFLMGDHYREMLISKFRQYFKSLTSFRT

[9] = Protein binding in C57BL/6 mouse plasma at 5 uM incubated for 4 hrs by LC-MS/MS analysis; format: ADME, cell-free; conditions: read-out: PPB (converted)
[10] = molecular target: T4, Succinate receptor 1 (Homo sapiens) (UniProt Q9BXA5); experiment: Antagonist activity at human SUCNR1 expressed in human CHEM1 cell membranes at 100 uM incubated for 60 mins in presence of [35S]GTPgammaS by scintillation proximity assay; format: functional; conditions: Chem-1
T4 sequence (whole entry): T1 sequence (Q9BXA5 whole entry)

[11] = Dose normalized AUC in C57BL/6 mouse at 10 mg/kg, po measured after 0.25 to 24 hrs by LC-MS/MS analysis; format: ADME, organism-based; conditions: in vivo, time 0.25-24 hrs
[12] = Ionization constant (base), pKa of the compound; format: physicochemical
[13] = Oral bioavailability in C57BL/6 mouse at 10 mg/kg measured after 0.25 to 24 hrs by LC-MS/MS analysis; format: ADME, organism-based; conditions: in vivo, time 0.25-24 hrs
[14] = Ionization constant (acid), pKa of the compound by UV metric assay; format: physicochemical
[15] = Intrinsic clearance in rat liver microsomes; format: ADME, Microsome; conditions: read-out: CLH

Sequence of Coagulation factor XI (P03951 19-387 limits assumed): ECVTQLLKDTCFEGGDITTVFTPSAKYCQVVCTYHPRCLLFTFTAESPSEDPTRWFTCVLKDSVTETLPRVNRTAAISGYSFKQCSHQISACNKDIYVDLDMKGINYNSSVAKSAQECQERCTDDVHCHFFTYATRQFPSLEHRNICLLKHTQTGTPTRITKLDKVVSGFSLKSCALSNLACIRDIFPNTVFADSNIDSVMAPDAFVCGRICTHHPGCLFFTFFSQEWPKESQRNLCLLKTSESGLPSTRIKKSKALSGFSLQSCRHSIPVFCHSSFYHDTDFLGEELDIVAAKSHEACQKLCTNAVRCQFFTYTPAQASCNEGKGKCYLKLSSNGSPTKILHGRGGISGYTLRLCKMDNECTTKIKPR
Sequence of Coagulation factor XI (P03951 388-625 limits assumed): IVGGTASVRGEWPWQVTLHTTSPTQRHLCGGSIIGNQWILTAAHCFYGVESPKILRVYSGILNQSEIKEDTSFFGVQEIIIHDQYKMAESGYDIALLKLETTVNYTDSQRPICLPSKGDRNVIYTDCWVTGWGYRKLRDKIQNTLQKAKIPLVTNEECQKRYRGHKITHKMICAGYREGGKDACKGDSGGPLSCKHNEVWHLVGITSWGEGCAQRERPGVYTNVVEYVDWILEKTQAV
Sequence of Complement factor D (P00746 whole entry): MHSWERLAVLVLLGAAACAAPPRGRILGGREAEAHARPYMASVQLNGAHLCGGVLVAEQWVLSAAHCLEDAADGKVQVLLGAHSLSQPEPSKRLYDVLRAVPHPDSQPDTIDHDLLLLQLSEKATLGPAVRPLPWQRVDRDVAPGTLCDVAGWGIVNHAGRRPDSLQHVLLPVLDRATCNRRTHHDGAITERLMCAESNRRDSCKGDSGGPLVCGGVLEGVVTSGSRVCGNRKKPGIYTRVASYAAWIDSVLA

Structure (SMILES)	log(permeability) [2]	logD [5]	IC50 (Succinate receptor 1) [µM]	also measured
O=C(O)Cc1ccccc1NC(=O)c1cccc(-c2ccc(Cl)cc2)c1F	-3.6	1.4	–	AUC/dose [1]: 7814 nmol·h/L; bioavailability [3]: 95%; clearance [4]: 0.6 L/h/kg
O=C(Nc1ccccc1C(=O)O)c1cccc(-c2ccc(Cl)cc2)c1	-3.7	3	23	–
O=C(O)Cc1cc(F)ccc1NC(=O)c1cccc(-c2cc(O[C@@H]3CCCNC3)c(Cl)cc2F)c1F	-5.1	–	0.088	inhibition [7]: 56%; AUC/dose [1]: 37000 nmol·h/L; inhibition [8]: 23%; bioavailability [3]: 74%; clearance [4]: 0.036 L/h/kg
O=C(O)Cc1ccccc1NC(=O)c1cccc(-c2ccc(Cl)cc2)c1	-3.8	1.9	1.3	fraction unbound at 4 h, 5 µM [6]: < 0.01
O=C(O)C[C@@H](NC(=O)c1cccc(-c2ccc(Cl)cc2)c1)c1cccnc1	–	–	–	inhibition [10]: inactive
NCc1cccc(-c2cccc(COc3ccccc3CC(=O)O)c2)c1	-4.5	–	> 100	AUC/dose [11]: 3646 nmol·h/L; pKa [12]: 9.4; bioavailability [13]: > 100%; pKa [14]: 4.4
O=C(O)CC(NC(=O)c1cccc(-c2ccc(Cl)cc2)c1)c1cccnc1 (configuration not stated)	-5.3	0.9	32	microsomal CLint [15]: 25 µL/min/mg
O=C(O)Cc1cc(F)ccc1NC(=O)c1cccc(-c2ccc(Cl)c(O[C@@H]3CCCNC3)c2F)c1	-4.9	–	–	AUC/dose [1]: 26100 nmol·h/L; bioavailability [3]: 93%; clearance [4]: 0.072 L/h/kg
O=C(O)C[C@H](NC(=O)c1cccc(-c2ccc(Cl)cc2)c1)c1cccnc1	-5.3	1.3	12	–
O=C(O)Cc1cc(F)ccc1NC(=O)c1cccc(-c2cc(O[C@@H]3CCCNC3)c(Cl)cc2F)c1	-4.4	–	–	AUC/dose [1]: 5737 nmol·h/L; bioavailability [3]: 137%; clearance [4]: 0.48 L/h/kg
NCc1cccc(-c2cccc(C(=O)Nc3ccccc3CC(=O)O)c2)c1	< -5.3	–	27	AUC/dose [11]: 206 nmol·h/L; pKa [12]: 9.5; pKa [14]: 4
CN1CCN(Cc2ccc(-c3cccc(C(=O)Nc4ccccc4CC(=O)O)c3)cc2)CC1	-5.5	0.5	–	–
O=C(O)Cc1ccccc1NC(=O)c1cccc(-c2ccc(Cl)c(O[C@H]3CCCNC3)c2)c1F	–	–	–	fraction unbound at 4 h, 5 µM [6]: 0.014; fraction unbound at 4 h, 5 µM [9]: 0.003

Second part, led by results:

log(permeability) [2]	logD [5]	IC50 (Succinate receptor 1) [µM]	Structure (SMILES)	also measured
-5	–	–	O=C(O)Cc1ccccc1NC(=O)c1cccc(-c2ccc(Cl)c(O[C@@H]3CCCNC3)c2F)c1	AUC/dose [1]: 2353 nmol·h/L; bioavailability [3]: 81%; clearance [4]: 0.72 L/h/kg
-5.3	2.1	0.3	NCc1cc(-c2cccc(C(=O)Nc3ccccc3CC(=O)O)c2)ccc1Cl	IC50 (Coagulation factor XI): 5.8 µM; IC50 (Complement factor D): > 100 µM; fraction unbound at 4 h, 5 µM [6]: 0.021
-5.3	2.8	–	O=C(O)Cc1ccccc1NC(=O)c1cccc(-c2ccc(Cl)c(OC3CCNC3)c2)c1 (configuration not stated)	–
-5.3	–	–	O=C(O)Cc1ccccc1NC(=O)c1cccc(-c2ccc(Cl)c(O[C@@H]3CCCNC3)c2)c1F	AUC/dose [1]: 1437 nmol·h/L; fraction unbound at 4 h, 5 µM [6]: 0.04; bioavailability [3]: 46%; fraction unbound at 4 h, 5 µM [9]: 0.026; clearance [4]: 0.66 L/h/kg
-5.4	2.8	–	NCCOc1cc(-c2cccc(C(=O)Nc3ccccc3CC(=O)O)c2)ccc1Cl	–
-5.4	2.5	0.14	O=C(O)Cc1ccccc1NC(=O)c1cccc(-c2ccc(Cl)c(OC3CCNCC3)c2)c1	pKa [12]: 9.9; pKa [14]: 4.1
-4.4	3.6	0.52	O=C(O)Cc1ccccc1NC(=O)c1cccc(-c2ccc(Cl)c(OC3CCCNC3)c2)c1 (configuration not stated)	pKa [12]: 9.4; pKa [14]: 4.1
-5.2	2.6	–	O=C(O)Cc1ccccc1NC(=O)c1cccc(-c2ccc(Cl)c(OC3CNC3)c2)c1	–
